Experimental data published in US9266859B2, “Azetidinyloxyphenylpyrrolidine compounds” (Eli Lilly and Company, priority 2013, dated 2016).
Where “and” joins values, the source holds several entries; their conditions need not be identical. Equal values may be shown once.

Columns and labels:
PDE4B = target: T1, PDE4B (Homo sapiens, UniProt Q07343); test: PDE4 Inhibition In Vitro Assay; assay type: biochemical; conditions: human recombinant PDE4B
T1 construct: made in house; host or cells: Saccharomyces cerevisiae lacking endogenous PDEs
T1 sequence (Q07343 whole entry): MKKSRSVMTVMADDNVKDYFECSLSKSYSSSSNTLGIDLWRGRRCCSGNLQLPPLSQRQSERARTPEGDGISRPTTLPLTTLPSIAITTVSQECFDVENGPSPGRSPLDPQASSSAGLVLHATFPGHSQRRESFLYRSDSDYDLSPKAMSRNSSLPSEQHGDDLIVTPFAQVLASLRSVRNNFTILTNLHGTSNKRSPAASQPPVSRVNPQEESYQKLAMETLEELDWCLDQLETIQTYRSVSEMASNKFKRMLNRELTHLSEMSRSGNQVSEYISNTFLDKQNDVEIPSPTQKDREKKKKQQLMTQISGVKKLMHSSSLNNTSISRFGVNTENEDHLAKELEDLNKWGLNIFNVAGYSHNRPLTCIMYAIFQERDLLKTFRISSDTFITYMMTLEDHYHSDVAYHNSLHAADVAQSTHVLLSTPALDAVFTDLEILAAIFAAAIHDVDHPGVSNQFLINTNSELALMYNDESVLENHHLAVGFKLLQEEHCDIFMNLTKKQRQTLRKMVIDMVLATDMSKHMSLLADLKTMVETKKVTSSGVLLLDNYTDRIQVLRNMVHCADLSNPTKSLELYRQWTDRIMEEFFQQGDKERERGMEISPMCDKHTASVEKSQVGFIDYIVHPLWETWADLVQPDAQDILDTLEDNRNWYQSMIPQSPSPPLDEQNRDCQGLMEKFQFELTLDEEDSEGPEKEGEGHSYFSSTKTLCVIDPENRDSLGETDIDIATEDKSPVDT
Procedure: The phosphodiesterase assays are performed essentially according to the method described in Loughney, K., et al., J. Biol. Chem., 271, pp. 796-806 (1996). PDE4A, PDE4B, PDE4C, PDE4D, and PDE5 human recombinant proteins are expressed and purified from Saccharomyes cerevisiae that lack endogenous PDEs. The phosphodiesterase enzymes are diluted on ice with enzyme dilution buffer (25 mM Tris, pH 7.5, 0.1 mM DTT, 5.0 mM MgCl2, 100 mM NaCl, 5 μM ZnSO4, 100 μg/mL BSA) to give approximately 20%-40% hydrolysis of cyclic nucleotide monophosphate (cNMP) in the absence of inhibitor.
The stock solution of test compounds are diluted on the Beckman BioMek™ 1000 workstation to span a concentration range of 4.5 log units in 0.5 log increments. The DMSO concentration in the final test system is 2.5% for all PDE enzymes. The final test compound concentration tested ranged from 0.03 nM to 1 μM.
The assay is performed in a 96-well microtiter plate format on a Beckman BioMek™ 1000 robotic station. […] The amount of radioactivity released as phosphate is determined in a Wallac MicroBeta Plate™ counter.
The reduced data at each concentration of inhibitor is analyzed using a four-, three- or two-parameter logistic dose response model to provide an IC50 value.

[1] = system: chronic cyclophosphamide (CYP)-induced overactive bladder mouse model; test: Overactive Bladder In Vivo Model (chronic cyclophosphamide-induced)
Procedure: The in vivo effect of PDE4 inhibitors on OAB is studied with a chronic cyclophosphamide (CYP)-induced overactive bladder mouse model adapted from Boudes et al., Neurourol. Urodynam. 2011. In a typical study, female C57/Bl6 mice, approximately 20 grams in body weight (Harlan Laboratories, Inc., Indianapolis, Ind.) are used. Mice are randomized by body weight into groups one day before the start of the study. Mice are individually housed and maintained on a 12 hour light/dark cycle at 22° C. with ad lib access to food (TD 2014 with 0.72% Ca and 0.61% P, 990 IU/g D3, Teklad™, Madison, Wis.) and water. Animals receive cyclophosphamide (dissolved in physiological saline) i.p. administration at 100 mg/kg on days 1, 3, 5, and 7 to chronically induce OAB. The vehicle control group received daily vehicle (HEC 1%/Tween 80 0.25%/Antifoam 0.05%) administered orally. All other groups are administered orally tadalafil at 10 mg/kg in combination with 0.1, 1.0, or 10.0 mg/kg of test compound daily at a volume of 200 μl/mouse. On day 8, mice are housed in urine collection chambers with a filter paper placed underneath chamber. Prior to urine collection, gavages of 1 ml water are given to each mouse. Urine is collected from 6 pm to 10 pm (i.e. for 4 hrs). Gel cups (DietGel™76A) are supplied as water source during the 4 hour period. The filter paper is changed every hour. Voiding frequency and volume/void are calculated using Image J software (NIH). Data are statistically analyzed with JMP8® software (Cary, N.C.).
All treatment groups receive a fixed dose of 10 mg/kg of tadalafil.

[2] = Example 2 0.1, 1.0, 10.0 mg/kg given with tadalafil 10 mg/kg

IC50 (PDE4B)	Structure (SMILES)	Mean Voiding Frequency ([1]; Example 2 0.1 mg/kg + tadalafil 10 mg/kg, oral daily, day 8, CYP-treated female C57/Bl6 mice, vehicle 16.5) [no./4 hr]	effect on urinary frequency (in words) [1, 2]	effect on volume/void (in words) [1, 2]
< 10 nM	COc1ccc([C@@H]2CN(C(=O)[C@@H](O)CO)C[C@@]2(C)[C@@H](C)O)cc1OC1CN(c2ccccn2)C1 [Example 1, (2S)-3-[(3S,4S)-3-[(1R)-1-hydroxyethyl]-4-{4-methoxy-3-[(1-pyridin-2-ylazetidin-3-yl)oxy]phenyl}-3-methylpyrrolidin-1-yl]-3-oxopropane-1,2-diol]	–	–	–
< 10 nM and 0.58 nM	COc1ccc([C@@H]2CN(C(=O)[C@@H](O)CO)C[C@@]2(C)[C@@H](C)O)cc1OC1CN(c2ccc(C)cn2)C1 [Example 2, (2S)-3-[(3S,4S)-3-[(1R)-1-hydroxyethyl]-4-(4-methoxy-3-{[1-(5-methylpyridin-2-yl)azetidin-3-yl]oxy}phenyl)-3-methylpyrrolidin-1-yl]-3-oxopropane-1,2-diol]	10	significantly reduces urinary frequency in a dose-dependent fashion	increases of volume/void are also observed in a dose-dependent fashion
